Key:
[1] = biological target: human V1aR (Homo sapiens (Human), UniProt P37288); assay: Inhibition activity on human V1aR (Fluo-4 calcium assay, HEK293/human V1aR stably transfected cells); format: cell-based; conditions: vasopressin 3 nM
Protocol: The inhibition effect of the compounds of the present invention on the activity of human V1 aR protein expressed in HEK293/human V1aR stably transfected cells was determined by the following experimental method:
The pcDNA3.1-V1aR plasmid was transferred into HEK293 cells with the Lipofectamine® 3000 transfection reagent; G418 was added on the next day to screen, and monoclonal cell lines were selected.
(§1) HEK293/human V1aR stably transfected cells were inoculated in a 96-well plate with an inoculation density of 25,000 cells/well one day in advance. On the next day, a loading buffer containing Fluo-4 dye was formulated using the reagents in the Fluo-4 NW calcium assay kit, and the culture medium was then removed; 100 μl of the loading buffer containing Fluo-4 dye were added to each well, and the plate was incubated at 37° C. for 30 minutes. After that, the plate was moved to room temperature and equilibrated for 10 minutes. The compounds were formulated at 10^6, 10^5, 10^4, 10^3, 10^2 and 10^1 nM. 1 μl of the compounds in each concentration was added to each well, and the plate was incubated at room temperature for 10 minutes. 50 μl of vasopressin polypeptide (3 nM) were automatically added by the machine, and the values were immediately detected at 494/516 nM by the flexstation 3 microplate reader. IC50 values of the compounds were calculated by Graphpad prism software using fluorescence signals corresponding to different concentrations.
The inhibition activity of the compounds of the present invention on human V1aR was determined by the above test, and the obtained IC50 values are shown in Table 2.

[2] = biological target: human OTR (Homo sapiens, UniProt P30559); assay: Inhibition activity on human OTR (Fluo-4 calcium assay, HEK293/human OTR stably transfected cells); format: cell-based; conditions: oxytocin 3 nM
Protocol: The inhibition effect of the compounds of the present invention on the activity of human OTR protein expressed in HEK293/human OTR stably transfected cells was determined by the following experimental method:
The pcDNA3.1-hOTR plasmid was transferred into HEK293 cells with the Lipofectamine® 3000 transfection reagent; G418 was added on the next day to screen, and monoclonal cell lines were selected.
as §1, with “OTR” for “V1aR”, “oxytocin” for “vasopressin”
The inhibition activity of the compounds of the present invention on human OTR was determined by the above test, and the obtained IC50 values are shown in Table 1.

[3] = Pharmacokinetics assay in rats after intragastrical administration; format: in vivo, SD rats; conditions: Sprague-Dawley, rat, plasma, po, 30 mg/kg, intragastric, male rats; for Vd/F: read-out: Apparent distribution volume Vz/F; for AUC: read-out: Area under curve AUC; for CL/F: read-out: Clearance CLz/F; for half-life: read-out: Half-life T1/2 (converted); for Cmax: read-out: Plasma concentration Cmax; for MRT: read-out: Residence time MRT
Protocol: Male SD rats were used as test animals. The drug concentration in plasma at different time points was determined by LC/MS/MS method after intragastrical administration of the compounds of Examples 2, 17, 34, 37, 38, 39 and 43 to rats. The pharmacokinetic behavior of the compounds of the present invention was studied and evaluated in rats.
Twenty-one healthy adult male Sprague-Dawley (SD) rats were purchased from Shanghai Jiesijie Laboratory Animal Co., LTD, with Certificate No.: SCXK (Shanghai) 2013-0006, and equally divided into 7 groups (3 rats per group).
A certain amount of the test compound was weighed, and added with 2.5% by volume of DMSO and 97.5% by volume of 10% solutol HS-15 to formulate a […] colorless, clear and transparent solution.
After an overnight fast, SD rats were administered intragastrically the test compounds at an administration dosage of 30.0 mg/kg and an administration volume of 10.0 mL/kg.
The rats were intragastrically administered the compounds of Examples 2, 17, 34, 37, 38, 39 and 43. 0.2 mL of blood was taken from the orbital sinus before administration and at 0.5, 1.0, 2.0, 4.0, 6.0, 8.0, 11.0 and 24.0 hours after administration. The samples were stored in heparinized tubes, and centrifuged for 10 minutes at 4° C. at 3500 rpm to separate the plasma. The plasma samples were stored at −20° C. The rats were fed 2 hours after administration.
The content of the test compounds in the plasma of rats after intragastrical administration of the test compounds at different concentrations was determined: 50 μL of rat plasma at each time after administration was taken, added with 50 μL of the internal standard solution of camptothecin (100 ng/mL) and 150 μL of acetonitrile, vortex-mixed for 5 minutes, and centrifuged for 10 minutes (4000 rpm). 3 μL of the supernatant was taken from the plasma samples for LC/MS/MS analysis.

Chain of human V1aR (P37288 whole entry): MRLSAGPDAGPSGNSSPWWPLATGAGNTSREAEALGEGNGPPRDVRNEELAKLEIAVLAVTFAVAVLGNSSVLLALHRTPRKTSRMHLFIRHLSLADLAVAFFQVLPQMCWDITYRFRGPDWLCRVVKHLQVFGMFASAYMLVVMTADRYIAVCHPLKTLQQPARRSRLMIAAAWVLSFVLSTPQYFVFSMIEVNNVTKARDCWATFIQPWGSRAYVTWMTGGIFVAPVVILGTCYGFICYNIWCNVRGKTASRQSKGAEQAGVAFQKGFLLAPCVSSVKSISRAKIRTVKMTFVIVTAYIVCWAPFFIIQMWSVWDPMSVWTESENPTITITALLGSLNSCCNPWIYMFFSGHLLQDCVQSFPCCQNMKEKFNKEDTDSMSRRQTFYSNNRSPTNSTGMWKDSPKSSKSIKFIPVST

Row | SMILES | IC50 [1] [nM] | IC50 [2] [nM] | other results
1 | COCc1nnc(N2CC(n3cc(Cl)c4cc(F)ccc43)C2)n1-c1ccc2c(c1)OCO2 [Example 3, 1-(1-(4-(Benzo[d][1,3]dioxolan-5-yl)-5-(methoxymethyl)-4H-1,2,4-triazol-3-yl)azetidin-3-yl)-3-chloro-5-fluoro-1H-indole] | 7000 | – | –
2 | CCOCc1nnc(N2CC(n3cc(Cl)c4cc(F)ccc43)C2)n1-c1ccc(OC)nc1 [Example 4, 3-Chloro-1-(1-(5-(ethoxymethyl)-4-(6-methoxypyridin-3-yl)-4H-1,2,4-triazol-3-yl)azetidin-3-yl)-5-fluoro-1H-indole] | 2300 | – | –
3 | CCOCc1nnc(N2CC(n3cc(C)c4cc(F)ccc43)C2)n1-c1ccc(OC)nc1 [Example 5, 1-(1-(5-(Ethoxymethyl)-4-(6-methoxypyridin-3-yl)-4H-1,2,4-triazol-3-yl)azetidin-3-yl)-5-fluoro-3-methyl-1H-indole] | – | 188 | –
4 | COc1ccc(-n2c(C)nnc2N2CC(n3cc(C)c4cc(F)ccc43)C2)cn1 [Example 6, 5-Fluoro-1-(1-(4-(6-methoxypyridin-3-yl)-5-methyl-4H-1,2,4-triazol-3-yl)azetidin-3-yl)-3-methyl-1H-indole] | 4700 | – | –
5 | COCc1nnc(N2CC(n3cc(C(F)(F)F)c4cc(F)ccc43)C2)n1-c1ccc(OC)nc1 [Example 7, 5-Fluoro-1-(1-(5-(methoxymethyl)-4-(6-methoxypyridin-3-yl)-4H-1,2,4-triazol-3-yl)azetidin-3-yl)-3-(trifluoromethyl)-1H-indole] | 6700 | – | –
6 | COCc1nnc(N2CC(n3cc(C#N)c4cc(F)ccc43)C2)n1-c1ccc(OC)nc1 [Example 13, 5-Fluoro-1-(1-(5-(methoxymethyl)-4-(6-methoxypyridin-3-yl)-4H-1,2,4-triazol-3-yl)azetidin-3-yl)-1H-indole-3-carbonitrile] | 11900 | – | –
7 | COCc1nnc(N2CC(N3CCCc4c(F)cccc43)C2)n1-c1ccc(OC)nc1 [Example 19, 5-Fluoro-1-(1-(5-(methoxymethyl)-4-(6-methoxypyridin-3-yl)-4H-1,2,4-triazol-3-yl)azetidin-3-yl)-1,2,3,4-tetrahydroquinoline] | 2000 | 41 | –
8 | COc1ccc(-n2c(C)nnc2N2CC(N3CCCc4c(F)cccc43)C2)cn1 [Example 20, 5-Fluoro-1-(1-(4-(6-methoxypyridin-3-yl)-5-methyl-4H-1,2,4-triazol-3-yl)azetidin-3-yl)-1,2,3,4-tetrahydroquinoline] | 3100 | 104 | –
9 | COCc1nnc(N2CC(N3CCOc4c(F)cccc43)C2)n1-c1ccc(OC)nc1 [Example 22, 8-Fluoro-4-(1-(5-(methoxymethyl)-4-(6-methoxypyridin-3-yl)-4H-1,2,4-triazol-3-yl)azetidin-3-yl)-3,4-dihydro-2H-benzo[b][1,4]oxazine] | 7500 | 177 | –
10 | COCc1nnc(N2CC(n3ccc4cc(F)ccc43)C2)n1-c1ccc(OC)nc1 [Example 25, 5-Fluoro-1-(1-(5-(methoxymethyl)-4-(6-methoxypyridin-3-yl)-4H-1,2,4-triazol-3-yl)azetidin-3-yl)-1H-indole] | – | 23 | –
11 | COCc1nnc(N2CC(N3CCCc4cc(F)ccc43)C2)n1-c1ccc2c(c1)OCO2 [Example 28, 1-(1-(4-(Benzo[d][1,3]dioxolan-5-yl)-5-(methoxymethyl)-4H-1,2,4-triazol-3-yl)azetidin-3-yl)-6-fluoro-1,2,3,4-tetrahydroquinoline] | 2400 | 231 | –
12 | COc1ccc(-n2c(COC(F)F)nnc2N2CC(n3cc(C)c4cc(F)ccc43)C2)cn1 [Example 34, 1-(1-(5-((Difluoromethoxy)methyl)-4-(6-methoxypyridin-3-yl)-4H-1,2,4-triazol-3-yl)azetidin-3-yl)-5-fluoro-3-methyl-1H-indole] | – | 8 | Vd/F [3]: 17.8 ± 3.33 L/kg; AUC [3]: 5330 ± 981 ng·h/mL; CL/F [3]: 95.8 ± 16 mL/min/kg; half-life [3]: 2.16 ± 0.345 h; Cmax [3]: 1070 ± 252 ng/mL; MRT [3]: 3.84 ± 1.08 h
13 | COc1ccc(-n2c(C(F)F)nnc2N2CC(N3CCOc4cc(F)ccc43)C2)cn1 [Example 35, 4-(1-(5-(Difluoromethyl)-4-(6-methoxypyridin-3-yl)-4H-1,2,4-triazol-3-yl)azetidin-3-yl)-7-fluoro-3,4-dihydro-2H-benzo[b][1,4]oxazine] | 14100 | 181 | –
14 | COC(=O)NCc1nnc(N2CC(N3CCCc4cc(F)ccc43)C2)n1-c1ccc(OC)nc1 [Example 36, Methyl ((5-(3-(6-fluoro-3,4-dihydroquinolin-1(2H)-yl)azetidin-1-yl)-4-(6-methoxypyridin-3-yl)-4H-1,2,4-triazol-3-yl)methyl)carbamate] | 2100 | 124 | –
15 | COc1ccc(-n2c(COC(F)F)nnc2N2CC(N3CCOc4cc(F)ccc43)C2)cn1 [Example 37, 4-(1-(5-((Difluoromethoxy)methyl)-4-(6-methoxypyridin-3-yl)-4H-1,2,4-triazol-3-yl)azetidin-3-yl)-7-fluoro-3,4-dihydro-2H-benzo[b][1,4]oxazine] | 1700 | 4 | Vd/F [3]: 56.3 ± 66 L/kg; AUC [3]: 8180 ± 9850 ng·h/mL; CL/F [3]: 201 ± 223 mL/min/kg; half-life [3]: 2.95 ± 0.42 h; Cmax [3]: 1120 ± 950 ng/mL; MRT [3]: 4.9 ± 1.36 h
16 | COc1ccc(-n2c(N3CC(N4CCCc5cc(F)ccc54)C3)nnc2C(F)(F)F)cn1 [Example 39, 6-Fluoro-1-(1-(4-(6-methoxypyridin-3-yl)-5-(trifluoromethyl)-4H-1,2,4-triazol-3-yl)azetidin-3-yl)-1,2,3,4-tetrahydroquinoline] | 2000 | 6 | Vd/F [3]: 35 ± 3.01 L/kg; AUC [3]: 3830 ± 83.7 ng·h/mL; CL/F [3]: 131 ± 2.85 mL/min/kg; half-life [3]: 3.09 ± 0.199 h; Cmax [3]: 1200 ± 68.5 ng/mL; MRT [3]: 3.61 ± 0.022 h
17 | COc1ccc(-n2c(CO)nnc2N2CC(c3cccc4cc(F)ccc34)C2)cn1 [Example 41, (5-(3-(6-Fluoronaphthalen-1-yl)azetidin-1-yl)-4-(6-methoxypyridin-3-yl)-4H-1,2,4-triazol-3-yl)methanol] | 9000 | 150 | –
18 | COCc1nnc(N2CC(N3CCC(C)(C)c4cc(F)ccc43)C2)n1-c1ccc(OC)nc1 [Example 42, 6-Fluoro-1-(1-(5-(methoxymethyl)-4-(6-methoxypyridin-3-yl)-4H-1,2,4-triazol-3-yl)azetidin-3-yl)-4,4-dimethyl-1,2,3,4-tetrahydroquinoline] | 4500 | 23 | –
